The record followed here is patent US20050074879A1, “Antisense oligonucleotide modulation of STAT3 expression” (priority 2000, published 2005).

Oligonucleotides are written 5' to 3', each unit as a sugar letter and its base; * is a phosphorothioate linkage, no mark a phosphodiester; rarer units and linkages stand in square brackets, end groups in braces. Plain capitals give the bases only. e = 2'-O-(2-methoxyethyl) (MOE); [5mC] = 5-methylcytosine; d = 2'-deoxy (DNA)

The subject of data set [1] is Human STAT3 mRNA. The experiment in a line: Inhibition of human STAT3 mRNA expression in U266 cells, Northern blot. It counts as cell-based. The settings on record: for STAT3 mRNA expression in U266 cells (in words): following electroporation, Northern blotting. The protocol:
U266 human myeloma cell lines (originally obtained from American Type Culture Collection) were maintained in RPMI 1640 medium supplemented with 10% fetal calf serum. Cells (15×10^6 cells in PBS) were transfected with oligonucleotides at 200V with a single 6-millisecond pulse using a BTX Electro Square Porator T820 (Genetronics, San Diego Calif.). The cells were incubated for 24 hours before RNA extraction.
Total cellular RNA was isolated using the Rneasy kit (Qiagen, Santa Clarita, Calif.). Northern blotting was perfomed on 15 μg of RNA using a cDNA probe prepared from MB-MDA 468 RNA by standard RT-PCR followed by a nested primer reaction. Signals were quantitated using a Molecular Dynamics Phosphorimager.
In order to examine the importance of STAT3 expression in multiple myeloma cells, a series of 20mer STAT3 antisense oligonucleotides were designed and synthesized, using phosphorothioate chemistry and incorporating 2′-O-methoxyethyl modifications to improve hybridization affinity and nuclease resistance.

For data set [2], the system named is U266 multiple myeloma cells. The experiment in a line: Apoptosis of U266 cells, Annexin-V staining, flow cytometry. It is filed as cell-based, human. How it is done:
U266 cells (ATCC, Bethesda, Md.) were cultured in RPMI 1640 medium supplemented with 10% heat-inactivated fetal bovine serum (Sigma Chemical Company, St. Louis, Mo.), 10 mM Hepes, pH 7.2, […] 2-ME, 2mM L-glutamine, 100 U/ml penicillin, and 100 µg/ml streptomycin (Gibco, Grand Island, N.Y.).
2′-O-methoxyethylribose modified phosphorothioate oligonucleotides were synthesized on an automated DNA synthesizer (Applied Biosystems model 380B), as described above. Chimeric oligonucleotides were employed in these studies; the chimeric oligonucleotides contain 2′-O-methoxyethyl modified residues flanking a 2′-deoxynucleotide/phosphorothioate region (gap) that supports RNase H activation. Oligonucleotides were analyzed by capillary gel electrophoresis and judged to be at least 85% full-length material. U266 (1×10^7 cells in PBS) were transfected with oligonucleotides by electroporation, at 175V, 1000 μF using a BTX Electro Cell Manipulator 600 (Genetronics, San Diego, Calif.).
10×10^6 U266 cells were electroporated with oligonucleotides and cultured for 48 hours before analysis of phosphatidylserine expression was performed as a measure of apoptosis using the Annexin-V staining kit (Clontech, Palo Alto, Calif.) according to the manufacturer's instructions. […] The samples were then diluted with FacsFlow buffer and analyzed on a Becton Dickinson FACScan (Mountain View, Calif.).

Data set [3] has as its system Human STAT3 mRNA. As to the kind of experiment: STAT3 mRNA in A549 cells treated with dsRNAs (duplex antisense compounds), real-time PCR PPS 199 (Table 22). It is filed as cell-based. The settings on record: treated 4 hours, harvested 16 hours later, − decrease, + increase vs untreated control. The protocol:
When cells reached 80% confluency, they are treated with duplexed antisense compounds of the invention. For cells grown in 96-well plates, wells are washed once with […] OPTI-MEM-1 reduced-serum medium (Gibco BRL) and then treated with 130 μL of OPTI-MEM-1 containing 12 μg/mL LIPOFECTIN (Gibco BRL) and the desired duplex antisense compound at a final concentration of 200 nM (a ratio of 6 μg/mL LIPOFECTIN per 100 nM duplex antisense compound). After 5 hours of treatment, the medium is replaced with fresh medium. Cells are harvested 16 hours after treatment, at which time RNA is isolated and target reduction measured by RT-PCR.
The compounds in Table 21 were tested for their effects on human STAT3 expression in A549 cells. ISIS 330249 targets the same site as the antisense oligonucleotid ISIS 106734 (SEQ ID NO: 45) and ISIS 330247 targets the same site as the antisense oligonucleotide ISIS 113176 (SEQ ID NO: 115); thus, ISIS 106734 and ISIS 113176 were also tested. A549 cells were treated with oligonucleotide mixed with LIPOFECTIN (Invitrogen Corporation, Carlsbad, Calif.) as described herein. The control oligonucleotide used was ISIS 129698 ([…], SEQ ID NO: 402). Cells were treated with oligonucleotide for 4 hours and harvested an additional 16 hours later. Untreated cells served as a control.
Human STAT3 mRNA expression levels were quantitated by real-time PCR using primer probe set PPS 199 and gene target quantities were normalized using Ribogreen as described in other examples herein. A “−” or “+” designation indicates a decrease or increase of STAT 3 mRNA expression, respectively, relative to untreated control cells. Where present, “N.D.” indicates not determined.
(Real-time PCR tracks product formation cycle by cycle.)

The next data set has as its system LGL leukemic cells. The experiment in a line: Sensitization of LGL cells to Fas-mediated apoptosis, flow cytometry. It is filed as cell-based, human. The protocol:
LGL leukemic cells were obtained from patients who met the clinical criteria of T cell (CD3+) LGL leukemia with increased LGL counts and clonal TCR gene rearrangements. All patients had chronic disease not requiring treatment at the time of analysis. Purified leukemic LGL cells were placed in 24-well plates at a concentration of 2×10^6/0.5 mL of complete medium (RPMI-1640 medium supplemented with 10% fetal bovine serum, 2 mM L-glutamine, 10 U/mL penicillin, and 100 ug/mL streptomycin, all from Gibco Life Technologies, Gaithersburg, Md.). Cells were incubated with either ISIS 17148 antisense oligonucleotide (SEQ ID NO: 95) or the control, ISIS 16094 (SEQ ID NO: 152). Antisense oligonucleotide delivery to LGL leukemic cells was by passive uptake and no transfection reagents were included in the reaction.
Extracts of LGL cells treated with antisense oligonucleotides (1 uM dosing for ISIS 17148 and the control) from three patients were obtained and assayed for STAT3 protein levels by Western blot. Sensitization of the LGL cells to Fas-mediated apoptosis was also measured by flow cytometry in cells treated with antisense oligonucleotides at doses of 1, 2 and 5 uM. By Western analysis, a reduction in STAT3 protein levels ranged from 25 to 45%. […] Levels of apoptosis in control oligonucleotide treated cells remained at 6% at all doses.

Data set [4] relates to LNCaP human prostatic carcinoma xenograft. The experiment in a line: LNCaP mouse model of prostate carcinoma: tumor volume and serum PSA in castrated nude mice. It is filed as in vivo. The settings on record: 10 mg/kg intraperitoneally, up to 10 weeks post-castration. The protocol: The LNCaP murine model of human prostate carcinoma is described in Kiyama et al., Cancer Res. 63:3575-3584, 2003, incorporated herein by reference. Briefly, LNCaP human prostatic carcinoma cells were cultured and maintained in RPMI medium (Life Technologies, Inc., Carlsbad, Calif.) supplemented with 5% heat inactivated fetal calf serum (FCS). About 1×10^6 LNCaP cells were inoculated subcutaneously with 0.1 ml of Matrigel (Becton Dickinson Labware, Franklin Lakes, N.J.) in the flank region of 6-8 week old male athymic nude mice (Harlan Sprague Dawley, Inc., Indianapolis, Ind.) via a 27 gauge needle under methoxyfluorane anesthesia. Mice bearing tumors between 300 and 500 mm^3 in volume were castrated via a scrotal approach and randomly assigned to treatment with 10 mg/kg of either ISIS 113176 human antisense or ISIS 129987 human mismatch control STAT 3 oligonucleotide intraperitoneally five times per week for the first week followed by three times per week thereafter. Treatment commenced beginning one day after castration. […] Tumor volumes were calculated by the formula L×W×H×0.5236 (Gleave et al., Cancer Res. 51:1598-1605, 1992). Blood samples were obtained from tail vein incisions of mice, and serum PSA levels were determined by an enzymatic immunoassay kit with a lower limit of sensitivity of 0.2 μg/liter (Abbott IMX, Montreal, Quebec, Canada) according to the manufacturer's protocol.

For the substance “113176 (antisense eG*e[5mC]*eT*e[5mC]*e[5mC]*dA*dG*d[5mC]*dA*dT*d[5mC]*dT*dG*d[5mC]*dT*eG*e[5mC]*eT*eT*e[5mC]) [compound 113176]”, the “Percent inhibition of STAT3 expression” value in the data set with Human STAT3 mRNA [1] (Oligo concentration 2.5 μM) was found to be 33%; in the data set on Human STAT3 mRNA [1] (Oligo concentration 5 μM), 67%; in the data set with Human STAT3 mRNA [1] (Oligo concentration 10 μM) it was 79%. Moreover, the “% mRNA INHIBITION” value in the data set with Human STAT3 mRNA [1] (U266 cells, 2.5 μM oligonucleotide, electroporation, 24 hours) is 27.7%. Besides, the “% mRNA EXPRESSION” value in the data set with Human STAT3 mRNA [1] (U266 cells, 2.5 μM oligonucleotide, electroporation, 24 hours, percent of control) was determined as 72.3%. In addition, in data set [2], the “annexin V staining (in words)” value was “increased levels of annexin V staining”. In addition, the “Percent change in STAT3 mRNA expression in A549 cells by duplex antisense compounds” value with Human STAT3 mRNA [3] (12.5 nM oligonucleotide) is on record as “+8%”; with Human STAT3 mRNA [3] (25 nM oligonucleotide) it was “+17%”; in the data set with Human STAT3 mRNA [3] (50 nM oligonucleotide), “+6%”; with Human STAT3 mRNA [3] (100 nM oligonucleotide), 0%; with Human STAT3 mRNA [3] (200 nM oligonucleotide), −22%; in the data set on Human STAT3 mRNA [3] (400 nM oligonucleotide), −34%.
In the case of “ACTCAAACTGCCCTCCTGCT (listed as DNA, chemistry not fully specified) [ISIS 17148]”, the “STAT3 mRNA expression in U266 cells (in words)” value in the data set on Human STAT3 mRNA [1] is on record as “potently inhibit STAT3 mRNA expression”. Besides, the percent specific apoptosis with LGL leukemic cells (1 uM, untreated cells 5%) is 6%; in the data set with LGL leukemic cells (2 uM), 17%; with LGL leukemic cells (5 uM), 24%. Moreover, the “annexin V staining (in words)” value in data set [2] was “increased levels of annexin V staining”.
“GCTCCAGCATCTGCTGCTTC (antisense eG*e[5mC]*eT*e[5mC]*e[5mC]*dA*dG*d[5mC]*dA*dT*d[5mC]*dT*dG*d[5mC]*dT*eG*e[5mC]*eT*eT*e[5mC]) [ISIS 113176]”: in the data set on Human STAT3 mRNA [1], the “STAT3 mRNA expression in U266 cells (in words)” value is “potently inhibit STAT3 mRNA expression”. Moreover, in data set [4], the “induction of serum PSA levels” value is on record as “suppressed” and the tumor growth entry was “suppressed”.
